pIC50: −log10 of the molar value.
How the values were obtained:
[1] = tested on: Phospho-Rb (Ser807/811) in SW1573-CDK4 KO cells; experiment: Phospho-Rb expression inhibition in SW1573-CDK4 KO cells quantified by in cell Western; assay type: cell-based; conditions: Homo sapiens, 24 hours, read-out: SW1573 CDK4 KO pRb IC50
Description: (§1) Parental SW1573 cells were obtained from the American Type Culture Collection (ATCC). CDK4 or CDK6 gene in […] cells was knocked out using the CRISPR-Cas9 technology. First, gRNA complex of CDK4 or CDK6 was prepared with Alt-R CRISPR-Cas9 tracrRNA and crRNA CDK4 (5′-[…]-3′ (SEQ ID NO: 4)) or CDK6 (5′-[…]-3′ (SEQ ID NO. 5)) (IDT-Integrated DNA Technologies), and then ribonucleoprotein (RNP) complex of CDK4 or CDK6 was prepared with respective gRNA complex and Alt-R S.p. Cas9 Nuclease V3 (IDT-Integrated DNA Technologies). Next, 5×10^4/10 μL SWJ1573 cells were electroporated with the CDK4 or CDK6 RNP complex and Alt-R Cas9 Electroporation Enhancer using Neon Transfection System (Thermo Fisher). Cells were then plated in a 96-well plate to select single clones for validation of CDK4 or CDK6 knockout by western blot analysis.
(§2) MCF7 cells were obtained from American Type Culture Collection (ATCC, HTB-22). SW1573-CDK6 KO and SW1573-CDK4 KO cells were generated by the CRISPR-Cas9 technology. All cells were plated in 96-well plates (VWR #10062-900, or Corning #3904) in 90 uL culture medium at a density of 20,000 cells/well in the respective growth medium containing 10% FBS and 1% Penicillin Streptomycin, and then incubated at 37° C. overnight. The following day, the test compound was administered to the cells by using 1000× compound stock solution prepared in DMSO at various concentrations. 1000× compound stock solution was first diluted in culturing medium to 10×, then 10 uL compound medium was added to each well in the cell plates. After administration of the compound, the cells were then incubated at 37° C. for 24 hours. Upon completion, the cells were washed with PBS briefly. 150 uL/well of 4% formaldehyde was added and the plates were incubated at room temperature for 20 mins. The cells were washed with PBS briefly, and permeabilized with 150 uL/well of ice cold 100% methanol for 10 mins. The cells were washed with PBS briefly and blocked with 100 uL/well LI-COR blocking buffer for 1 hr at room temperature with gentle shaking. The cells were incubated overnight at 4° C. with 50 uL primary antibody rabbit anti-Phospho-Rb (Ser807/811) (1: 500, Cell Signaling, #8516) and anti-Rb (1:200, Santa Cruz, sc-73598) diluted in Intercept Blocking Buffer (LI-COR, #927-60001) containing 0.1% Tween 20. The next day, the cells were washed with 200 uL PBS containing 0.1% Tween 20, 5×5 mins at room temperature with gentle shaking, and incubated with 50 uL secondary antibody, IRDye® 800CW Goat anti-Rabbit IgG (1:1000, LI-COR, #926-32211) and IRDye®680RD Goat anti-Mouse IgG (1:1000, LI-COR, #926-68070), in LI-COR blocking buffer with 0.2% Tween 20 for 1 hr at room temperature with gentle shaking. The cells were washed with 200 uL PBS containing 0.1% Tween 20, 5×5 mins at room temperature with gentle shaking. The cells were washed with PBS for 5 mins. 100 uL fresh PBS was added to each well and the plates were imaged on a LI-COR Odyssey CLX plate reader.

[2] = tested on: Phospho-Rb (Ser807/811) in SW1573-CDK6 KO cells; experiment: Phospho-Rb expression inhibition in SW1573-CDK6 KO cells quantified by in cell Western; assay type: cell-based; conditions: Homo sapiens, 24 hours, read-out: SW1573 CDK6 KO pRb IC50
Description: as §1, §2

[3] = tested on: Phospho-Rb (Ser807/811) in MCF7 cells; experiment: Phospho-Rb expression inhibition in MCF7 cells quantified by in cell Western; assay type: cell-based, human; conditions: Homo sapiens, MCF7, 24 h, 24 hours, in cell Western, read-out: MCF7 pRb IC50
Summary of the method: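 MCF7 cells were seeded at 20,000/well, grown overnight, then treated 24 h at 37 °C with compound dilutions (0.1% DMSO from 1000× stocks). Fixed cells were co-stained for phospho-Rb Ser807/811 and total Rb. Near-infrared dual-channel in-cell Western imaging was the read-out.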

pIC50 [1]	pIC50 [2]	pIC50 [3]	SMILES
6.00 to 6.82	≥ 7.40	≥ 7.40	CC(C)n1c(C2CCC2(F)F)nc2c(F)cc(-c3nc(N[C@@H]4C[C@H]5CO[C@H](O5)[C@H]4O)ncc3Cl)cc21 (stereo partly drawn) [Compound 239, (1S,3R,4S,5R)-3-((5-chloro-4-(2-(2,2-difluorocyclobutyl)-4-fluoro-1-isopropyl-1H-benzo[d]imidazol-6-yl)pyrimidin-2-yl)amino)-6,8-dioxabicyclo[3.2.1]octan-4-ol]
< 6.00	6.82 to 7.40	–	CC(C)n1c(C2CC(F)C2)nc2c(F)cc(-c3nc(N[C@@H]4C[C@H]5CO[C@H](O5)[C@H]4O)ncc3Cl)cc21 (stereo partly drawn) [Compound 243, (1S,3R,4S,5R)-3-((5-chloro-4-(4-fluoro-2-((1r,3R)-3-fluorocyclobutyl)-1-isopropyl-1H-benzo[d]imidazol-6-yl)pyrimidin-2-yl)amino)-6,8-dioxabicyclo[3.2.1]octan-4-ol]
< 6.00	6.00 to 6.82	6.82 to 7.40	CC(C)n1c([C@H]2C[C@H]2C(=O)N(C)C)nc2c(F)cc(-c3nc(N[C@@H]4C[C@H]5CO[C@H](O5)[C@H]4O)ncc3Cl)cc21 [Compound 248, (1R,2S)-2-(6-(5-chloro-2-(((1S,3R,4S,5R)-4-hydroxy-6,8-dioxabicyclo[3.2.1]octan-3-yl)amino)pyrimidin-4-yl)-4-fluoro-1-isopropyl-1H-benzo[d]imidazol-2-yl)-N,N-dimethylcyclopropane-1-carboxamide]
